Activity calls are given as the source filed them. No cut-off for these calls is given here.
Experiments:
[1] = Tmax in Beagle dog at 0.25 mg/kg, po; type: ADME, organism-based, Canis lupus familiaris; conditions: in vivo
[2] = Tmax in human plasma at 4 mg, po; type: ADME, cell-free
[3] = Cmax in Sprague-Dawley rat at 0.5 mg/kg, po; type: ADME, organism-based; design: route oral, dose 0.5 mg/kg; conditions: in vivo
[4] = Cmax in Beagle dog at 0.25 mg/kg, po; type: ADME, organism-based, Canis lupus familiaris; design: route oral, dose 0.25 mg/kg; conditions: in vivo
[5] = Cmax in human plasma at 2 mg, po; type: ADME, cell-free; design: route oral, dose 2 mg
[6] = Cmax in human plasma at 8 mg, po; type: ADME, cell-free; design: route oral, dose 8 mg
[7] = AUC (0 to infinity) in Sprague-Dawley rat at 0.5 mg/kg, po; type: ADME, organism-based; design: time infinity, route oral, dose 0.5 mg/kg; conditions: in vivo
[8] = AUC (0 to infinity) in Sprague-Dawley rat at 0.5 mg/kg, iv; type: ADME, organism-based; design: time infinity, route intravenous, dose 0.5 mg/kg; conditions: in vivo
[9] = AUC (0 to infinity) in Beagle dog at 0.25 mg/kg, iv; type: ADME, organism-based, Canis lupus familiaris; design: route intravenous, time infinity, dose 0.25 mg/kg; conditions: in vivo
[10] = Half life in Sprague-Dawley rat at 0.5 mg/kg, po; type: ADME, organism-based; conditions: in vivo
[11] = Terminal half life in human plasma at 8 mg, po; type: ADME, cell-free; conditions: read-out: beta t1/2 (converted)
[12] = Terminal half life in human plasma at 12 mg, po; type: ADME, cell-free; conditions: read-out: beta t1/2 (converted)
[13] = Clearance in Beagle dog at 0.25 mg/kg, iv; type: ADME, organism-based, Canis lupus familiaris; conditions: in vivo
[14] = Volume of distribution at steady state in Sprague-Dawley rat at 0.5 mg/kg, po or iv; type: ADME, organism-based; conditions: in vivo, read-out: Vdss
[15] = AUC(0 to t) in Sprague-Dawley rat brain at 10 mg/kg, po; type: ADME, organism-based; design: dose 10 mg/kg
[16] = Cmax in Sprague-Dawley rat plasma at 10 mg/kg, po; type: ADME, organism-based; design: route oral, dose 10 mg/kg
[17] = AUC (0 to infinity) in Sprague-Dawley rat plasma at 10 mg/kg, po; type: ADME, organism-based; design: route oral, time infinity, dose 10 mg/kg
[18] = MRT in Sprague-Dawley rat plasma at 10 mg/kg, po; type: ADME, organism-based
[19] = Protein binding in human plasma; type: ADME, cell-free; conditions: read-out: PPB (converted)
[20] = Genotoxicity in Salmonella typhimurium TA98 by Ames test; type: toxicity; conditions: salmonella enterica subsp. enterica serovar typhimurium
[21] = Genotoxicity in Salmonella typhimurium TA100 by Ames test; type: toxicity; conditions: salmonella enterica subsp. enterica serovar typhimurium
[22] = Genotoxicity in ICR mouse at 7.5 to 30 mg/kg, po administered once a day for 2 consecutive days by micronucleus test; type: toxicity, organism-based; conditions: in vivo, 48 h, dose 7.5-30 mg/kg, time 2 day
Mus musculus [23] = assay: Cognitive enhancing effect in mouse model of scopolamine-induced memory impairment assessed as reduction in number of errors at 1 to 2 mg/kg, IG QD for 3 days by channel water maze test; type: functional, organism-based; conditions: dose 1-2 mg/kg, time 3.0 day
Mus musculus [24] = assay: Cognitive enhancing effect in ig dosed APP/PS1 double mutant-transgenic mouse model assessed as increase in spontaneous alteration administered once daily by Y-maze test; type: functional, organism-based; conditions: dose 0.25-1 mg/kg
Mus musculus [25] = assay: Improvement in learning and spatial memory in APP/PS1 double mutant-transgenic mouse model assessed as increase in time spent in target quadrant at 0.5 to 1 mg/kg, IG QD by Morris water maze test; type: functional, organism-based; conditions: dose 0.5-1 mg/kg
[26] = Cardiotoxicity in Beagle dog assessed as effect on PR interval at 0.1 to 1 mg/kg; type: toxicity, organism-based, Canis lupus familiaris; conditions: in vivo, dose 0.1-1 mg/kg
[27] = Cardiotoxicity in Beagle dog assessed as effect on QRS interval at 0.1 to 1 mg/kg; type: toxicity, organism-based, Canis lupus familiaris; conditions: in vivo, dose 0.1-1 mg/kg
Cytochrome P450 1A2 = target: T1, Cytochrome P450 1A2 (Homo sapiens, UniProt P05177); assay: Inhibition of CYP1A2 in human hepatocytes; type: ADME, cell-based, Hepatocyte
T1 sequence (P05177 whole entry): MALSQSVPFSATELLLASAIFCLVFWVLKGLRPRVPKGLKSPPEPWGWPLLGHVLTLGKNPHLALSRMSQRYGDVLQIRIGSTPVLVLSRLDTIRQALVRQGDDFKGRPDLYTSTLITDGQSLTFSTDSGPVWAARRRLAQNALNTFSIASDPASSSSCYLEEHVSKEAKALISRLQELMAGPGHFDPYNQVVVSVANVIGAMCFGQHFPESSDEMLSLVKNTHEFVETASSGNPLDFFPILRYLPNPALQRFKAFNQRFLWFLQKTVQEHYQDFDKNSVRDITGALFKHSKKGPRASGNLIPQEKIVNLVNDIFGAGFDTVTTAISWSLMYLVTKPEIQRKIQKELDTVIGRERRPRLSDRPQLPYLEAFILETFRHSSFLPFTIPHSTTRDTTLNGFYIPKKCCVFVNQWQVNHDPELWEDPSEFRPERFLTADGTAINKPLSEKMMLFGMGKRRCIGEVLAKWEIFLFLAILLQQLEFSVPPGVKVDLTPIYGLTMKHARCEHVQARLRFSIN

Cytochrome P450 2B6 = target: T2, Cytochrome P450 2B6 (Homo sapiens, UniProt P20813); assay: Inhibition of CYP2B6 in human hepatocytes; type: ADME, cell-based, Hepatocyte
T2 sequence (P20813 whole entry): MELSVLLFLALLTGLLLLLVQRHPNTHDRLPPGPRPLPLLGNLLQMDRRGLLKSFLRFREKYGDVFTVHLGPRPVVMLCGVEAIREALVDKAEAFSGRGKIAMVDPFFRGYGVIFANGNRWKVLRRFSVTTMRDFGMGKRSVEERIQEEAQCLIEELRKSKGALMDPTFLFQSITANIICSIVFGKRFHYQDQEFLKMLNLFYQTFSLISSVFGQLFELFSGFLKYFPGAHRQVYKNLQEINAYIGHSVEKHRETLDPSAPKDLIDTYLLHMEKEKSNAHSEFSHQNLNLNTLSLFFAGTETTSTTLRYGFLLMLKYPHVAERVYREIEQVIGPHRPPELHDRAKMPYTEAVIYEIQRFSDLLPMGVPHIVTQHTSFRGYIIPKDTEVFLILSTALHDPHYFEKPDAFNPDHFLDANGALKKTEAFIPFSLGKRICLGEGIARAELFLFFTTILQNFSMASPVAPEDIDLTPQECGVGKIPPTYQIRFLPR

Cytochrome P450 2C8 = target: T3, Cytochrome P450 2C8 (Homo sapiens, UniProt P10632); assay: Inhibition of CYP2C8 in human hepatocytes; type: ADME, cell-based, Hepatocyte
T3 sequence (P10632 whole entry): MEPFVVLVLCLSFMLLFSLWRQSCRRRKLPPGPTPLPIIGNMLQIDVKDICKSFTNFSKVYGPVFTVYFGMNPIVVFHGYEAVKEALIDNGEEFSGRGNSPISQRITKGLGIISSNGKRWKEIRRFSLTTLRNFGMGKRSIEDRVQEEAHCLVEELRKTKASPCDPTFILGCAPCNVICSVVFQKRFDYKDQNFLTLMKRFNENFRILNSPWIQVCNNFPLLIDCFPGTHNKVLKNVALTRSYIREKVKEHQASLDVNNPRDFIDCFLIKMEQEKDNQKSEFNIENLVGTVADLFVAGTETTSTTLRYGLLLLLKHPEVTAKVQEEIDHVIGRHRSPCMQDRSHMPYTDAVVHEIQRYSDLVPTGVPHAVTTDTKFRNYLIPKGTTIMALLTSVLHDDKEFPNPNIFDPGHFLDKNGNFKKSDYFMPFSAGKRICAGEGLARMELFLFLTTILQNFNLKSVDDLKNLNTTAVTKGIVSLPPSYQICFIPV

[28] = Induction of CYP3A4 expression in human hepatocytes at 10 uM; type: ADME, cell-based, Hepatocyte

COc1cc2c(cc1OC)C(=O)C(CC1(F)CCN(Cc3ccccc3F)CC1)C2 (stereo unspecified)
Tmax [1]: 0.92 h | Tmax [2]: 0.75 h | Cmax [3]: 35.7 ng/mL | Cmax [4]: 16.9 ng/mL | Cmax [5]: 2.43 ng/mL | Cmax [6]: 16.4 ng/mL | AUC(0-inf) [7]: 179 ng·h/mL | AUC(0-inf) [8]: 395 ng·h/mL | AUC(0-inf) [9]: 256 ng·h/mL | half-life [10]: 4.17 h | half-life [11]: 27.6 h | half-life [12]: 32.1 h | clearance [13]: 17.5 mL/min/kg | Vd [14]: 6.52 L/kg | AUC(0-t) [15]: 5840 ng·h/mL | Cmax [16]: 215 ng/mL | AUC(0-inf) [17]: 1140 ng·h/mL | MRT [18]: 6.81 h | fraction unbound [19]: 0.022 | Activity [20]: Non-Toxic | Activity [21]: Non-Toxic | Activity [22]: Non-Toxic | Activity (Mus musculus [23]): Active | Activity (Mus musculus [24]): Active | Activity (Mus musculus [25]): Active | Activity [26]: Non-Toxic | Activity [27]: Non-Toxic | IC50 (Cytochrome P450 1A2): > 30 µM | IC50 (Cytochrome P450 2B6): > 30 µM | IC50 (Cytochrome P450 2C8): > 30 µM | Activity [28]: Non-Toxic

— ChEMBL document CHEMBL4813953, “Kinetics-Driven Drug Design Strategy for Next-Generation Acetylcholinesterase Inhibitors to Clinical Candidate” (J Med Chem, 2021)
